Source: patent US20250082633A1, “COMPOUNDS AND METHODS FOR MODULATING SPLICING” (REMIX THERAPEUTICS INC., priority 2021, published 2025)

Tests used:
[1] = test system: HiBiT-tagged MYB protein in K562 cells; assay: HiBit protein abundance assay, MYB; assay type: cell-based, human; details: K562 HiBiT-modified cells, 24 hours, luminescence
Procedure: (§1) Compounds described herein were used to screen for effects on quantitative protein abundance using a HiBit assay system (Promega). Quantitative protein abundance was determined by measuring the protein levels of HiBit-tagged protein targets expressed in cell culture via luminescence using the Nano-Glo HiBiT Lytic Detection System, which uses a split complementation assay format to reconstitute NanoBiT enzyme to generate a luminescent signal. A protein abundance assay was developed such that endogenous protein targets could be modified with the HiBiT peptide tag and their abundance could be assessed after compound treatment. Briefly, K562 cell lines containing a HiBiT-modification were treated with various compounds described herein (e.g., compounds of Formulas (I), (II), or (III)). After treatment for 24 hours, the protein abundance of a specific target was determined by measuring luminescence. • Promega Nano-Glo HiBiT Lytic Detection System (cat #N3030) • Corning 384-well TC-treated microplates (cat #3570) • Synthego Engineered Cells Knock-In Clones [table] Cells were maintained in IMDM with 10% FBS. Before the assay, cells were diluted with phenolphthalein-free growth media (IMDM+1% FBS media) and were seeded in a 384-well plate at a density of 10000 cells/well (for each cell line listed in Table 6). Each compound was prepared as a 10-point 3-fold serial dilution in DMSO with the top dose at a final concentration of 10 μM in the well. Unmodified K562 cells were added at the previously specified density with DMSO to serve as an assay baseline and positive control (PC) and DMSO only with the respective modified cell lines was added to the negative control (NC) columns. Final DMSO concentration was kept at or below 0.25%. Treated cell plates were placed in an incubator at 37° C. with 5% CO2 for 24 hours. After 24 hours, 25 μL of Complete HiBit Lytic reagent was added to each well at room temperature (e.g. one plate requiring 10 mL Lytic Buffer, 100 μL LgBiT Protein, 200 μL Lytic Substrate), shaken for 5 minutes at 600 RPM, then left to sit for 10 minutes for signal to stabilize before reading on a Spark Cyto plate reader (Tecan) with a 500 ms measurement time. To determine compound effects on protein abundance of each target in Table 6, the percent response for each respective cell line was calculated at each compound concentration as follows: For the normalized response at each concentration, a four-parameter logistical regression was fit to the data and the response was interpolated at the 50% value to determine a concentration for protein abundance at 50% (IC50) the untreated control.

Target C = assay: HiBit protein abundance assay, Target C; assay type: cell-based; details: Homo sapiens; K562 HiBiT-modified cells, 24 hours, luminescence
Procedure: as §1, with “Clones” for “Clones [table]”

Compound | IC50 [1] [nM] | IC50 (Target C) [nM]
COc1cc(-c2cc3cn(C)nc3cc2O)nc2cn(C3CCNCC3)nc12 [Compound 140, 5-[7-methoxy-2-(4-piperidyl)pyrazolo[4,3-b]pyridin-5-yl]-2-methyl-indazol-6-ol] | 1000 to 10000 | 1000 to 10000
Cn1cc2cc(-c3cc(Cl)c4nn(C5CCNCC5)cc4n3)c(O)cc2n1 [Compound 141] | > 10000 | > 10000
COC1=C(C)C2N=C(C)OC2C=C1c1cc(F)c2nn(C3CCNCC3)cc2n1 (stereo not drawn) [Compound 144] | 1000 to 10000 | 1000 to 10000
Cn1cc2cc(-c3cc(F)c4nn(C5CCNCC5)cc4c3)ccc2n1 [Compound 145, 7-fluoro-5-(2-methylindazol-5-yl)-2-(4-piperidyl)indazole] | 100 to 1000 | 100 to 1000
Cn1cc2cc(-c3ccc4cn(C5CCNCC5)nc4c3)cc(F)c2n1 [Compound 148, 7-fluoro-2-methyl-5-[2-(4-piperidyl)indazol-6-yl]indazole] | > 10000 | > 10000
Cc1cn2nc(-c3cc(F)c4nn(C5CCN(CC6CC6)CC5)cc4c3)cc(C)c2n1 [Compound 149, 6-[2-[1-(cyclopropylmethyl)-4-piperidyl]-7-fluoro-indazol-5-yl]-2,8-dimethyl-imidazo[1,2-b]pyridazine] | 100 to 1000 | < 100
Cc1cn2nc(-c3cc(F)c4nn(C5CCN(C6CCC6)CC5)cc4c3)cc(C)c2n1 [Compound 151, 6-[2-(1-cyclobutyl-4-piperidyl)-7-fluoro-indazol-5-yl]-2,8-dimethyl-imidazo [1,2-b] pyridazine] | < 100 | < 100
Cc1cn2nc(-c3cc4cn(C5CCNCC5)nc4c(OCc4ccccc4)n3)cc(C)c2n1 [Compound 153, 6-[7-benzyloxy-2-(4-piperidyl)pyrazolo [3,4-c]pyridin-5-yl]-2,8-dimethyl-imidazo[1,2-b]pyridazine] | 1000 to 10000 | 1000 to 10000
Cc1ccc2nc(-c3cc(F)c4nn(C5CCNCC5)cc4c3)ccc2n1 [Compound 157, 2-[7-fluoro-2-(4-piperidyl)indazol-5-yl]-6-methyl-1,5-naphthyridine] | 1000 to 10000 | > 10000
Fc1cc(-c2ccc3ccncc3c2)cc2cn(C3CCNCC3)nc12 [Compound 158, 7-[7-fluoro-2-(4-piperidyl)indazol-5-yl]isoquinoline] | 1000 to 10000 | 1000 to 10000
Cc1cn2nc(-c3cc(F)c4nn(C5CCN(CCO)CC5)cc4c3)cc(C)c2n1 [Compound 160, 2-[4-[5-(2,8-dimethylimidazo[1,2-b]pyridazin-6-yl)-7-fluoro-indazol-2-yl]-1-piperidyl]ethanol] | 100 to 1000 | < 100
Fc1cc(-c2ccc3cnccc3c2)cc2cn(C3CCNCC3)nc12 [Compound 161, 6-[7-fluoro-2-(4-piperidyl)indazol-5-yl]isoquinoline] | 1000 to 10000 | 1000 to 10000
Fc1cc(-c2ccc3ncccc3c2)cc2cn(C3CCNCC3)nc12 [Compound 162, 6-[7-fluoro-2-(4-piperidyl)indazol-5-yl]quinoline] | 1000 to 10000 | 1000 to 10000
Cc1ccc2cc(-c3cc(F)c4nn(C5CCNCC5)cc4c3)ccc2n1 [Compound 163, 6-[7-fluoro-2-(4-piperidyl)indazol-5-yl]-2-methyl-quinoline] | 1000 to 10000 | 1000 to 10000
Cc1ncc2cc(-c3cc(F)c4nn(C5CCNCC5)cc4c3)ccc2n1 [Compound 165, 6-[7-fluoro-2-(4-piperidyl)indazol-5-yl]-2-methyl-quinazoline] | > 10000 | > 10000

Next, values leading:

IC50 [1] [nM] | IC50 (Target C) [nM] | Compound
100 to 1000 | 100 to 1000 | Cc1cn2nc(-c3ccc4nn(C5CCNCC5)cc4n3)cc(C)c2n1 [Compound 138, 2,8-dimethyl-6-[2-(4-piperidyl)pyrazolo[4,3-b]pyridin-5-yl]imidazo[1,2-b]pyridazine]
100 to 1000 | 100 to 1000 | Cc1cn2nc(-c3cc4cn(C5CCNCC5)nc4c(O)n3)cc(C)c2n1 [Compound 139, 5-(2,8-dimethylimidazo[1,2-b]pyridazin-6-yl)-2-(4-piperidyl)-6H-pyrazolo[3,4-c]pyridin-7-one]
100 to 1000 | < 100 | CCN1CCC(n2cc3cc(-c4cc(C)c5nc(C)cn5n4)cc(F)c3n2)CC1 [Compound 146, 6-[2-(1-ethyl-4-piperidyl)-7-fluoro-indazol-5-yl]-2,8-dimethyl-imidazo[1,2-b]pyridazine]
100 to 1000 | 100 to 1000 | Cc1cn2nc(-c3cc4cn(C5CCNCC5)nc4cn3)cc(C)c2n1 [Compound 147, 2,8-dimethyl-6-[2-(4-piperidyl)pyrazolo[3,4-c]pyridin-5-yl]imidazo[1,2-b]pyridazine]
100 to 1000 | < 100 | Cc1cn2nc(-c3cc(F)c4nn(C5CCN(C)CC5)cc4c3)cc(C)c2n1 [Compound 150, 6-[7-fluoro-2-(1-methyl-4-piperidyl)indazol-5-yl]-2,8-dimethyl-imidazo[1,2-b]pyridazine]
100 to 1000 | 100 to 1000 | Cc1cn2nc(-c3cc(F)c4nn(C5CCN(CCF)CC5)cc4c3)cc(C)c2n1 [Compound 152]
100 to 1000 | < 100 | Cc1cn2nc(-c3cc4cn(C5CCNCC5)nc4cc3O)cc(C)c2n1 [Compound 154, 5-(2,8-dimethylimidazo[1,2-b]pyridazin-6-yl)-2-(piperidin-4-yl)-2H-indazol-6-ol]
100 to 1000 | 100 to 1000 | COc1cc(-c2cc(C)c3nc(C)cn3n2)cc2cn(C3CCNCC3)nc12 [Compound 155, 6-(7-methoxy-2-(piperidin-4-yl)-2H-indazol-5-yl)-2,8-dimethylimidazo [1,2-b]pyridazine]
1000 to 10000 | 1000 to 10000 | Cc1cn2nc(-c3cc(O)c4nn(C5CCNCC5)cc4c3)cc(C)c2n1 [Compound 156, 5-(2,8-dimethylimidazo[1,2-b]pyridazin-6-yl)-2-(piperidin-4-yl)-2H-indazol-7-ol]
> 10000 | > 10000 | COc1cc2nn(C3CCNCC3)cc2cc1-c1cc(C)c2nc(C)cn2n1 [Compound 159, 6-(6-methoxy-2-(piperidin-4-yl)-2H-indazol-5-yl)-2,8-dimethylimidazo[1,2-b]pyridazine]
100 to 1000 | 100 to 1000 | Cc1cn2nc(-c3cc(F)c4nn(C5CCNCC5F)cc4c3)cc(C)c2n1 (stereo not drawn) [Compound 166, 6-[7-fluoro-2-(3-fluoro-4-piperidyl)indazol-5-yl]-2,8-dimethyl-imidazo [1,2-b]pyridazine]
1000 to 10000 | 100 to 1000 | Cc1cn2nc(-c3cc(F)c4nn([C@H]5CCNC[C@@H]5F)cc4c3)cc(C)c2n1 [Compound 167, 6-(7-fluoro-2-((3S,4S)-3-fluoropiperidin-4-yl)-2H-indazol-5-yl)-2,8-dimethylimidazo[1,2-b]pyridazine]
